Legend:
Format in all cases: cell-based
L. lactis T-21 = assay: Dose response deferred antagonism assay, producer M18
M. catarrhalis TW1 = assay: Deferred antagonism assay, producer S. salivarius K12
Procedure: (§1) 1-2 producer strain colonies were transferred from a stock plate into 900 μL of suspension solution using a fresh cotton swab. Following this, suspensions were vortexed, and a sample was inoculated onto solid culture media using a fresh cotton swab. The inoculation was a streak that runs diametrically across the agar plate in a 1.5 cm wide strip. The plate was then incubated. Following incubation all visible colonies were removed by swabbing them from the agar surface. The plates were then treated with chloroform by dispensing 2 ml of chloroform onto 4 cm×4 cm piece of cloth and sealing the inverted agar plate on top for 30 minutes. The plates were then air dried for 30 minutes following chloroforming. 1-2 indicator strain colonies were then transferred from a stock plate into complementary suspension solution. The suspensions were then vortexed, and a sample was inoculated onto the same agar surface. These samples were streaked in a perpendicular direction to the initial producer streak.
(§2) Each indicator streak was prepared with fresh a suspension containing cells from a corresponding stock plate containing the indicator strain of interest. Indicator strains suspension samples were transferred using a fresh cotton swab. Results were measured by qualitatively reviewing the subsequent (if any) sizes of the zones of inhibition (ZOI) of indicator strain colony growth. A positive result is when there is a distinctive reduction or complete inhibition of indicator colony growth on the culture medium.
(§3) CABCa agar plates containing various concentrations of saccharide were prepared according to the methods described in Method 1. Producer strains were transferred from stock agar plates into 900 μL THB using a fresh cotton swab. A plastic spread plater was cut to approximately 1.2 cm width and then dipped into ethanol and left to air dry to ensure sterility. A 100 μL sample of the producer strain suspension was then dispensed onto the agar surface in a straight line running diametrically across the agar surface in (approximately) 20 μL spots. The spots were spaced approximately 1.5 cm apart from each other. The plastic spreader was then used to evenly distribute the spots across the agar surface in a 1.5 cm wide strip. This step was taken to ensure an even producer streak was inoculated onto the agar surface and provided an approximate measure of the initial inoculum concentration. Separate plastic spreaders were used for samples containing different producer strains. The samples were left to soak into the agar surface until there was no visible liquid remaining on the agar surface (approximately 20 minutes). Following producer streak preparations, the deferred antagonism assay protocol was followed as per Method 2. Results were recorded by measuring the size of the zone of inhibition (ZOI) in mm.
(§4) A dose response assay was carried out according to method 3 above, except a 1.2 cm streak was used. For the individual saccharide testing the pH of the producer streak was adjusted after the growth of producer to change the acidic conditions.

[1] = test system: S. pyogenes strain as well as other microorganisms; assay: Inhibitory activity of M18 grown in M17 broth with saccharides; settings: saccharide 0.83% or 2.5% w/v, vs control
[2] = test system: indicator bacterial test strains; assay: Inhibitory activity of freeze dried raw ingredient powder, K12 and M18 combination; settings: galactose 0.5% w/w; raffinose 2.5% w/w; or combination
Procedure: (§5) Method: The amount of raffinose and galactose used was calculated based on the volume of the area of the producer streak, (which was calculated to be 4.25 g) to allow for the absorption of the saccharides into the agar. Based on this, amount of 0.021 g (i.e. 0.5% w/w galactose of 4.25 g agar volume) of galactose, 0.11 g (i.e 2.5% w/w) of raffinose and the combination of galactose (0.5% w/w) and raffinose (2.5% w/w) (0.13 g total) were weighed into sterile containers. K12 and/or M18 raw ingredient were suspended and diluted with sterile distilled water to a concentration of 1-2×10^6 cfu/100 μl. Then, […] of K12 only, M18 only, and K12±M18 suspensions were spread as a 1 cm streak down the middle of a CABCa agar plate using a sterile spreader. […] Bacterial growth was then removed using a microscope slide, and the pH of the agar in the producer streak area was measured and adjusted to pH 6.5-7.5 using 0.5M sodium carbonate (pH 11) before surface sterilizing the plates with chloroform vapour. […] Zones of inhibition for each test organism were then measured in mm using a ruler. The amount of raffinose and galactose to be used was calculated based on the volume of the area of the producer streak, (which was calculated to be 4.25 g) to allow for absorption into the agar.

indicator strains = assay: Deferred antagonism assay, producer S. salivarius K12: total strains inhibited; settings: for Total stains inhibited / Total strains inhibited / Total number of strains inhibited: K12
Procedure: as §1, §2, §3, §4
A deferred antagonism assay was conducted using K12 or M18 raw ingredient suspended in Todd Hewitt broth (THB). This was spread as a 1.2 cm streak containing approximately 1-2×10^6 cfu down the middle of a CABCa control or CABCa galactose supplemented test plate. After 18 hrs growth at 37° C. with 5% CO2, bacterial growth was removed, and the pH of the agar in the initial streak was measured and adjusted to a pH of 6.5-7.5 using 0.5M sodium carbonate pH11 before sterilizing the agar surface using chloroform vapor. Bacterial test strains were suspended in i-THB before being swabbed across the plates perpendicular to the initial streak. Plates were incubated for a further 18 hrs incubation at 37° C. with 5% CO2 before measuring (mm) any zones of inhibition for each test strain, […]

[3] = test system: indicator bacterial test strains; assay: Inhibitory activity of freeze dried raw ingredient powder, K12; settings: galactose 0.5% w/w; raffinose 2.5% w/w; or combination
Procedure: as §5

O=C[C@H](O)[C@@H](O)[C@@H](O)[C@H](O)CO [Galactose, D-galactose]
L. lactis zone of inhibition (L. lactis T-21; 1.5% (w/v) galactose, largest): 9 mm | change in TW1 ZOI size (M. catarrhalis TW1; 1.5% galactose (w/v), peak): 12 mm | inhibitory activity of M18 grown in presence of saccharide [1]: greater inhibitory activity | inhibitory activity of freeze-dried raw ingredient powder of K12 and M18 combination [2]: induced the inhibitory activity | Total stains inhibited (indicator strains; Galactose 0.5% w/w): 5/6 | Total stains inhibited (indicator strains; Galactose 1.25% w/w): 5/7 | Total stains inhibited (indicator strains; Galactose 1.7% w/w): 4/7 | Total stains inhibited (indicator strains; Galactose 2.5% w/w): 4/7 | Total stains inhibited (indicator strains; Galactose 3.3% w/w): 2/7 | Total stains inhibited (indicator strains; Galactose 5% w/w): 0/7 | Total strains inhibited (indicator strains; saccharide 3.3% w/v): 0/3 | Total strains inhibited (indicator strains; saccharide range 0.83%-3.3% w/v): 1/3 | inhibitory activity (potency) and spectrum of Blis K12 and Blis M18 (indicator strains; only at 0.5% w/w Galactose): enhanced inhibitory activity | inhibitory activity of freeze-dried raw ingredient powder of K12 [3]: induced the inhibitory activity

OC[C@H]1O[C@H](OC[C@H]2O[C@H](O[C@]3(CO)O[C@H](CO)[C@@H](O)[C@@H]3O)[C@H](O)[C@@H](O)[C@@H]2O)[C@H](O)[C@@H](O)[C@H]1O [Raffinose, D-(+) Raffinose pentahydrate]
L. lactis ZOI size (L. lactis T-21; 0.1% (w/v) raffinose): 20 mm | change in ZOI size M. catarrhalis TW1 (M. catarrhalis TW1; 2.0% (w/v) raffinose, peak): 13 mm | Zone of inhibition M. catarrhalis TW1 (M. catarrhalis TW1; Raffinose 1.7% wt): 0 mm | Zone of inhibition M. catarrhalis TW1 (M. catarrhalis TW1; Raffinose 1.7% wt, pH adjusted): 0 mm | Zone of inhibition M. catarrhalis TW1 (M. catarrhalis TW1; Raffinose 2.5% wt): 10 mm | Zone of inhibition M. catarrhalis TW1 (M. catarrhalis TW1; Raffinose 2.5% wt, pH adjusted): 0 mm | Zone of inhibition M. catarrhalis TW1 (M. catarrhalis TW1; Raffinose 3.3% wt): 0 mm | Zone of inhibition M. catarrhalis TW1 (M. catarrhalis TW1; Raffinose 3.3% wt, pH adjusted): 0 mm | Zone of inhibition M. catarrhalis TW1 (M. catarrhalis TW1; Raffinose 5% wt): 5 mm | Zone of inhibition M. catarrhalis TW1 (M. catarrhalis TW1; Raffinose 5% wt, pH adjusted): 0 mm | Zone of inhibition M. catarrhalis TW1 (M. catarrhalis TW1; Raffinose 10% wt): 6 mm | Zone of inhibition M. catarrhalis TW1 (M. catarrhalis TW1; Raffinose 10% wt, pH adjusted): 0 mm | inhibitory activity of M18 grown in presence of saccharide [1]: greater inhibitory activity | inhibitory activity of freeze-dried raw ingredient powder of K12 and M18 combination [2]: induced the inhibitory activity | Total number of strains inhibited (indicator strains; Raffinose 1.7% wt): 6 | Total number of strains inhibited (indicator strains; Raffinose 1.7% wt, pH adjusted): 5 | Total number of strains inhibited (indicator strains; Raffinose 2.5% wt): 7 | Total number of strains inhibited (indicator strains; Raffinose 2.5% wt, pH adjusted): 6 | Total number of strains inhibited (indicator strains; Raffinose 3.3% wt): 5 | Total number of strains inhibited (indicator strains; Raffinose 3.3% wt, pH adjusted): 5 | Total number of strains inhibited (indicator strains; Raffinose 5% wt): 6 | Total number of strains inhibited (indicator strains; Raffinose 5% wt, pH adjusted): 6 | Total number of strains inhibited (indicator strains; Raffinose 10% wt): 6 | Total number of strains inhibited (indicator strains; Raffinose 10% wt, pH adjusted): 6 | Total strains inhibited (indicator strains; saccharide 3.3% w/v): 3/3 | Total strains inhibited (indicator strains; saccharide range 2.5%-10% w/v): 3/3 | number of the indicators tested inhibited (indicator strains; Raffinose 1.7, 2.5, 3.3 and 5%, K12 or M18): at least 7 | inhibitory spectrum of K12 or M18 (indicator strains; Raffinose (2.5%)): inhibit several ENTR, dental and skin pathogens and S. salivarius strains | inhibitory activity of freeze-dried raw ingredient powder of K12 [3]: induced the inhibitory activity

From patent US20240390434A1, “PROBIOTIC ENHANCERS AND USES THEREOF” (Blis Technologies Limited, priority 2021, published 2024)
